From patent publication US20190125888A1, “TARGETED CONJUGATES AND PARTICLES AND FORMULATIONS THEREOF” (priority 2015, published 2019)
Like-named read-outs stand apart in the source and are kept apart here.

Legend:
[1] = Chrom LogP of maytansinoid conjugates; format: physicochemical
[2] = Ligand charge of maytansinoid conjugates; format: physicochemical
human SSTR2 = human SSTR2 (Homo sapiens, UniProt P30874); test: Radioligand-receptor binding assay, [125I] somatostatin, membranes from SSTR2 expressing CHO-K1 cells
human SSTR2, sequence (P30874 whole entry): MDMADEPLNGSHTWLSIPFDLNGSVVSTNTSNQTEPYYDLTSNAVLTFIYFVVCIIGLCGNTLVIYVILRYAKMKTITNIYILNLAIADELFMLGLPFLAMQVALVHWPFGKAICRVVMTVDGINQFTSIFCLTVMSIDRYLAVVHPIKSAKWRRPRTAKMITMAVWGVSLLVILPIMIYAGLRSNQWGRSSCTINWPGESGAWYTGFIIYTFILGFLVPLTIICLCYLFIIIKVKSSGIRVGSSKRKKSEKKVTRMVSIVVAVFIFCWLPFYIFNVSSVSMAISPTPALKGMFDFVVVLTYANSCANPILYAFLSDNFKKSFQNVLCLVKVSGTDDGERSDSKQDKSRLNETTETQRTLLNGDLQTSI
Summary of the method: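 CHO-K1 SSTR2 membranes incubated 4 h with 0.03 nM [125I] somatostatin and conjugates in a 10-point, 6-fold series from 10 uM. Bound radioligand measured after filtration and washing; IC50 by non-linear least-squares regression.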

[3] = system: NCI-H524 (ATCC) human lung cancer cells; format: cell-based
Summary of the method: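 NCI-H524 cells (5,000/well) exposed to conjugates for 6 hours, washed, then grown a further 66 hours; ten-point threefold dilutions from 20 μM. Proliferation by CellTiter-Glo versus vehicle; IC50 by four-parameter nonlinear regression, measured with and without octreotide competition.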

[4] = read-out: H524 IC50 6 h, 6 hours treatment, further 66 hours incubation
[5] = read-out: H524 IC50 with 100 μM octreotide 6 h, with 100 μM octreotide competition, 6 h treatment

Structure (SMILES) | chromatographic logP [1] | Ligand charge [2] | Ki (human SSTR2) [nM] | IC50 [3, 4] [nM] | IC50 [3, 5] [nM]
COc1cc2cc(c1Cl)N(C)C(=O)C[C@H](OC(=O)[C@H](C)N(C)C(=O)CCSSC(C)(C)[C@H](NC(=O)[C@@H]1CSSC[C@H](NC(=O)[C@@H](Cc3ccccc3)NC(=O)Nc3ccccc3)C(=O)N[C@@H](Cc3ccc(O)cc3)C(=O)N[C@H](Cc3c[nH]c4ccccc34)C(=O)N[C@@H](CCCCN)C(=O)N[C@@H]([C@@H](C)O)C(=O)N1)C(N)=O)[C@]1(C)O[C@H]1[C@H](C)[C@@H]1C[C@@](O)(NC(=O)O1)[C@H](OC)/C=C/C=C(\C)C2 [Conjugate 11] | 2.98 | +1 | 0.034 | 6.1 | 232
COc1cc2cc(c1Cl)N(C)C(=O)C[C@H](OC(=O)[C@H](C)N(C)C(=O)CCSSC(C)(C)[C@H](NC(=O)[C@@H]1CSSC[C@H](NC(=O)[C@@H](Cc3ccccc3)NCc3ccccc3)C(=O)N[C@@H](Cc3ccc(O)cc3)C(=O)N[C@H](Cc3c[nH]c4ccccc34)C(=O)N[C@@H](CCCCN)C(=O)N[C@@H]([C@@H](C)O)C(=O)N1)C(N)=O)[C@]1(C)O[C@H]1[C@H](C)[C@@H]1C[C@@](O)(NC(=O)O1)[C@H](OC)/C=C/C=C(\C)C2 [Conjugate 12] | 2.57 | +2 | 0.02 | 19.5 | 331
CCNC(=O)N[C@H](Cc1ccccc1)C(=O)N[C@H]1CSSC[C@@H](C(=O)N[C@H](C(N)=O)C(C)(C)SSCCC(=O)N(C)[C@@H](C)C(=O)O[C@H]2CC(=O)N(C)c3cc(cc(OC)c3Cl)C/C(C)=C/C=C/[C@@H](OC)[C@@]3(O)C[C@H](OC(=O)N3)[C@@H](C)[C@@H]3O[C@@]23C)NC(=O)[C@H]([C@@H](C)O)NC(=O)[C@H](CCCCN)NC(=O)[C@@H](Cc2c[nH]c3ccccc23)NC(=O)[C@H](Cc2ccc(O)cc2)NC1=O [Conjugate 13] | 2.67 | +1 | 0.018 | 6.5 | 340
COc1cc2cc(c1Cl)N(C)C(=O)C[C@H](OC(=O)[C@H](C)N(C)C(=O)CCSSC(C)(C)[C@H](NC(=O)[C@@H]1CSSC[C@H](NC(=O)[C@@H](Cc3ccccc3)NS(=O)(=O)Cc3ccc(C(F)(F)F)cc3)C(=O)N[C@@H](Cc3ccc(O)cc3)C(=O)N[C@H](Cc3c[nH]c4ccccc34)C(=O)N[C@@H](CCCCN)C(=O)N[C@@H]([C@@H](C)O)C(=O)N1)C(N)=O)[C@]1(C)O[C@H]1[C@H](C)[C@@H]1C[C@@](O)(NC(=O)O1)[C@H](OC)/C=C/C=C(\C)C2 [Conjugate 14] | 3.23 | +1 | 0.041 | 14 | 331
COc1cc2cc(c1Cl)N(C)C(=O)C[C@H](OC(=O)[C@H](C)N(C)C(=O)CCSSC[C@H](NC(=O)[C@@H]1CSSC[C@H](NC(=O)[C@@H](Cc3ccccc3)NC(=O)NC3CCCCC3)C(=O)N[C@@H](Cc3ccc(O)cc3)C(=O)N[C@H](Cc3c[nH]c4ccccc34)C(=O)N[C@@H](CCCCN)C(=O)N[C@@H]([C@@H](C)O)C(=O)N1)C(N)=O)[C@]1(C)O[C@H]1[C@H](C)[C@@H]1C[C@@](O)(NC(=O)O1)[C@H](OC)/C=C/C=C(\C)C2 [Conjugate 25] | 2.94 | +1 | 0.11 | 32 | 123
COc1cc2cc(c1Cl)N(C)C(=O)C[C@H](OC(=O)[C@H](C)N(C)C(=O)CCSSC[C@H](NC(=O)[C@@H]1CSSC[C@H](NC(=O)[C@@H](Cc3ccccc3)NC(=O)NCc3ccccc3)C(=O)N[C@@H](Cc3ccc(O)cc3)C(=O)N[C@H](Cc3c[nH]c4ccccc34)C(=O)N[C@@H](CCCCN)C(=O)N[C@@H]([C@@H](C)O)C(=O)N1)C(N)=O)[C@]1(C)O[C@H]1[C@H](C)[C@@H]1C[C@@](O)(NC(=O)O1)[C@H](OC)/C=C/C=C(\C)C2 [Conjugate 28] | 2.51 | +1 | 0.057 | 6.1 | 31
CCNC(=O)N[C@H](Cc1ccccc1)C(=O)N[C@H]1CSSC[C@@H](C(=O)N[C@@H](CSSCCC(=O)N(C)[C@@H](C)C(=O)O[C@H]2CC(=O)N(C)c3cc(cc(OC)c3Cl)C/C(C)=C/C=C/[C@@H](OC)[C@@]3(O)C[C@H](OC(=O)N3)[C@@H](C)[C@@H]3O[C@@]23C)C(=O)NCC)NC(=O)[C@H]([C@@H](C)O)NC(=O)[C@H](CCCCN)NC(=O)[C@@H](Cc2c[nH]c3ccccc23)NC(=O)[C@H](Cc2ccc(O)cc2)NC1=O [Conjugate 30] | 2.79 | +1 | 0.071 | 2.4 | 27
COc1cc2cc(c1Cl)N(C)C(=O)C[C@H](OC(=O)[C@H](C)N(C)C(=O)CCSSC[C@H](NC(=O)[C@@H]1CSSC[C@H](NC(=O)[C@@H](Cc3ccccc3)NS(C)(=O)=O)C(=O)N[C@@H](Cc3ccc(O)cc3)C(=O)N[C@H](Cc3c[nH]c4ccccc34)C(=O)N[C@@H](CCCCN)C(=O)N[C@@H]([C@@H](C)O)C(=O)N1)C(N)=O)[C@]1(C)O[C@H]1[C@H](C)[C@@H]1C[C@@](O)(NC(=O)O1)[C@H](OC)/C=C/C=C(\C)C2 [Conjugate 34] | 2.57 | +1 | 0.18 | 13 | 83
COc1cc2cc(c1Cl)N(C)C(=O)C[C@H](OC(=O)[C@H](C)N(C)C(=O)CCSSC[C@H](NC(=O)[C@@H]1CSSC[C@H](NC(=O)[C@@H](Cc3ccccc3)NC(=O)NCc3ccc(C(F)(F)F)cc3)C(=O)N[C@@H](Cc3ccc(O)cc3)C(=O)N[C@H](Cc3c[nH]c4ccccc34)C(=O)N[C@@H](CCCCN)C(=O)N[C@@H]([C@@H](C)O)C(=O)N1)C(N)=O)[C@]1(C)O[C@H]1[C@H](C)[C@@H]1C[C@@](O)(NC(=O)O1)[C@H](OC)/C=C/C=C(\C)C2 [Conjugate 37] | 3.07 | +1 | 0.16 | 3.7 | 93
COc1cc2cc(c1Cl)N(C)C(=O)C[C@H](OC(=O)[C@H](C)N(C)C(=O)CCSSC[C@H](NC(=O)[C@@H]1CSSC[C@H](NC(=O)[C@@H](Cc3ccccc3)NC(=O)Nc3cc(C(F)(F)F)cc(C(F)(F)F)c3)C(=O)N[C@@H](Cc3ccc(O)cc3)C(=O)N[C@H](Cc3c[nH]c4ccccc34)C(=O)N[C@@H](CCCCN)C(=O)N[C@@H]([C@@H](C)O)C(=O)N1)C(N)=O)[C@]1(C)O[C@H]1[C@H](C)[C@@H]1C[C@@](O)(NC(=O)O1)[C@H](OC)/C=C/C=C(\C)C2 [Conjugate 38] | 3.47 | +1 | 5.34 | 261 | 296
COc1cc2cc(c1Cl)N(C)C(=O)C[C@H](OC(=O)[C@H](C)N(C)C(=O)CCSSC[C@H](NC(=O)[C@@H]1CSSC[C@H](NC(=O)[C@@H](Cc3ccccc3)NC(=O)NCCC(c3ccccc3)c3ccccc3)C(=O)N[C@@H](Cc3ccc(O)cc3)C(=O)N[C@H](Cc3c[nH]c4ccccc34)C(=O)N[C@@H](CCCCN)C(=O)N[C@@H]([C@@H](C)O)C(=O)N1)C(N)=O)[C@]1(C)O[C@H]1[C@H](C)[C@@H]1C[C@@](O)(NC(=O)O1)[C@H](OC)/C=C/C=C(\C)C2 [Conjugate 41] | 3.29 | +1 | 0.5 | 41 | 97
